Results published in PubChem BioAssay AID330 (DTP/NCI, 2004).
“And” between values parts separate entries of the source, which are not always exact repeats. Equal entries are not always repeated. Toxic doses and inconclusive results are not listed. Peptide text beside a SMILES is read from it.

System: P388 leukemia ip, CD2F1 mice, survival T/C
Assay: NCI In Vivo Anticancer Drug Screen. Data for tumor model P388 Leukemia (intraperitoneal) in CD2F1 (CDF1) mice
Details: endpoint: median survival time, higher = longer survival
How it was run: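 Mice carrying the transplanted tumor received test compound or vehicle. Survival was recorded in each group, and the value is the treated-group measurement divided by that of the vehicle-treated control group.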

[1] = dose: 12.5 mg/kg/injection, schedule: Q01DX009 (ip), vehicle: saline with Tween-80
[2] = dose: 12.5 mg/kg/injection, schedule: Q01DX009 (ip), vehicle: water
[3] = dose: 50.0 mg/kg/injection, schedule: Q01DX005 (ip), vehicle: saline with Tween-80
[4] = dose: 100.0 mg/kg/injection, schedule: Q01DX005 (ip), vehicle: saline with Tween-80
[5] = dose: 200.0 mg/kg/injection, schedule: Q01DX005 (ip), vehicle: saline with Tween-80
[6] = dose: 50.0 mg/kg/injection, schedule: Q01DX009 (ip), vehicle: Klucel (hydroxypropylcellulose) (HPC)
[7] = dose: 50.0 mg/kg/injection, schedule: Q01DX009 (ip), vehicle: saline with Tween-80
[8] = dose: 100.0 mg/kg/injection, schedule: Q01DX009 (ip), vehicle: Klucel (hydroxypropylcellulose) (HPC)
[9] = dose: 100.0 mg/kg/injection, schedule: Q01DX009 (ip), vehicle: saline with Tween-80
[10] = dose: 200.0 mg/kg/injection, schedule: Q01DX009 (ip), vehicle: Klucel (hydroxypropylcellulose) (HPC)
[11] = dose: 200.0 mg/kg/injection, schedule: Q01DX009 (ip), vehicle: saline with Tween-80
[12] = dose: 50.0 mg/kg/injection, schedule: Q01DX009 (ip), vehicle: saline
[13] = dose: 100.0 mg/kg/injection, schedule: Q01DX009 (ip), vehicle: saline
[14] = dose: 200.0 mg/kg/injection, schedule: Q01DX009 (ip), vehicle: saline

## CN(C)C1=Nc2ccc(Cl)cc2C(c2ccccc2)=NC1O (stereo not drawn)
dose: 60.0 mg/kg/injection, schedule: Q01DX005 (ip), vehicle: Klucel (hydroxypropylcellulose) (HPC)
  T/C: 95 % of control
dose: 120.0 mg/kg/injection, schedule: Q01DX005 (ip), vehicle: Klucel (hydroxypropylcellulose) (HPC)
  T/C: 98 % of control
dose: 240.0 mg/kg/injection, schedule: Q01DX005 (ip), vehicle: Klucel (hydroxypropylcellulose) (HPC)
  T/C: 100 % of control

## COc1ccc(C(=O)[Se][Se]C(=O)c2ccc(OC)cc2)cc1
dose: 6.25 mg/kg/injection, schedule: Q01DX009 (ip), vehicle: saline with Tween-80
  T/C: 100 % of control
[1]
  T/C: 102 % of control

## CC(C)C(NC(=O)C(NC(=O)C(CCCN=C(N)N)NC(=O)C(N)CCCCN)C(C)C)C(N)=O (stereo not drawn) (H-KRVV-NH2; configuration not given here)
[2]
  T/C: 114 % of control
dose: 25.0 mg/kg/injection, schedule: Q01DX009 (ip), vehicle: water
  T/C: 104 % of control
dose: 50.0 mg/kg/injection, schedule: Q01DX009 (ip), vehicle: water
  T/C: 110 % of control
dose: 100.0 mg/kg/injection, schedule: Q01DX009 (ip), vehicle: water
  T/C: 104 % of control
dose: 200.0 mg/kg/injection, schedule: Q01DX009 (ip), vehicle: water
  T/C: 99 % of control

## COc1cccc(N=Nc2c(-c3ccccc3)nn(C(N)=S)c2C)c1
[3]
  T/C: 100 % of control
[4]
  T/C: 89 % of control
[5]
  T/C: 91 % of control

## CC1CCCN2C(=O)CN(CCc3ccccc3)CC(=O)N12 (stereo not drawn)
[3]
  T/C: 99 % of control
[4]
  T/C: 100 % of control
[5]
  T/C: 100 % of control

## O=C1Nc2ccc3[nH]ncc3c2C1=O
[3]
  T/C: 101 % of control
[4]
  T/C: 103 % of control
[5]
  T/C: 109 % of control

## c1cc(C2=NCCN2)ccc1Nc1ccc(-c2cc3ccc(C4=NCCN4)cc3[nH]2)cc1
dose: 3.75 mg/kg/injection, schedule: Q01DX005 (ip), vehicle: Klucel (hydroxypropylcellulose) (HPC)
  T/C: 150 % of control and 165 % of control
dose: 7.5 mg/kg/injection, schedule: Q01DX005 (ip), vehicle: Klucel (hydroxypropylcellulose) (HPC)
  T/C: 154 % of control and 177 % of control

## CCOc1ccc(Cc2ccc3c(c2)OCO3)cc1C
[3]
  T/C: 101 % of control
[4]
  T/C: 108 % of control
[5]
  T/C: 111 % of control

## CC(C)CN1CC(=O)N2CCCC(c3ccccc3)N2C(=O)C1 (stereo not drawn)
[3]
  T/C: 95 % of control
[4]
  T/C: 115 % of control
[5]
  T/C: 112 % of control

## Cc1ccc([N+](=O)[O-])c2ccccc12
[6]
  T/C: 113 % of control and 97 % of control
[7]
  T/C: 109 % of control
[8]
  T/C: 100 % of control and 98 % of control
[9]
  T/C: 100 % of control
[10]
  T/C: 103 % of control and 120 % of control
[11]
  T/C: 96 % of control
dose: 400.0 mg/kg/injection, schedule: Q01DX009 (ip), vehicle: Klucel (hydroxypropylcellulose) (HPC)
  T/C: 86 % of control and 97 % of control

## Cc1cc(=O)n(-c2ccc(S(=O)(=O)Nc3nccs3)cc2)c(C)c1C(=O)O
[3]
  T/C: 103 % of control
[4]
  T/C: 98 % of control
[5]
  T/C: 100 % of control

## CC[N+](C)(C)c1ccc(/C=C(/C#N)C(=O)OC)cc1
[7]
  T/C: 100 % of control
[9]
  T/C: 103 % of control

## Cc1ccc(S(=O)(=O)N/N=C/c2c(C)noc2C)cc1
[6]
  T/C: 101 % of control
[8]
  T/C: 95 % of control
[10]
  T/C: 95 % of control

## C=C(C)CNC(=O)C(C)O (stereo not drawn)
[3]
  T/C: 97 % of control
[4]
  T/C: 93 % of control
[5]
  T/C: 99 % of control

## COc1ccccc1N1C(=O)CSC1=Nc1ccccc1
[12]
  T/C: 98 % of control
[13]
  T/C: 96 % of control
[14]
  T/C: 100 % of control

## CCC(=O)N(C)C(C)C(=O)OC1CC(=O)N(C)c2cc(cc(OC)c2Cl)CC2(C)OC2/C=C/C(OC)C2(O)CC(OC(=O)N2)C(C)C2OC12C (stereo not drawn)
dose: 25.0 micrograms/kg/injection, schedule: Q01DX009 (ip), vehicle: saline + alcohol
  T/C: 124 % of control
dose: 50.0 micrograms/kg/injection, schedule: Q01DX009 (ip), vehicle: saline + alcohol
  T/C: 120 % of control and 124 % of control
dose: 100.0 micrograms/kg/injection, schedule: Q01DX009 (ip), vehicle: saline + alcohol
  T/C: 124 % of control
dose: 800.0 micrograms/kg/injection, schedule: Q01DX009 (ip), vehicle: saline + alcohol
  T/C: 152 % of control

## CCC(CC)(COS(C)(=O)=O)COS(C)(=O)=O
[7]
  T/C: 104 % of control
[9]
  T/C: 101 % of control
[11]
  T/C: 90 % of control
dose: 400.0 mg/kg/injection, schedule: Q01DX009 (ip), vehicle: saline with Tween-80
  T/C: 89 % of control

## C=C(N=NNc1ccccc1)c1ccccc1
dose: 50.0 mg/kg/injection, schedule: Q01DX005 (ip), vehicle: Klucel (hydroxypropylcellulose) (HPC)
  T/C: 97 % of control
dose: 100.0 mg/kg/injection, schedule: Q01DX005 (ip), vehicle: Klucel (hydroxypropylcellulose) (HPC)
  T/C: 101 % of control
dose: 200.0 mg/kg/injection, schedule: Q01DX005 (ip), vehicle: Klucel (hydroxypropylcellulose) (HPC)
  T/C: 93 % of control

## O=NNc1ncccc1OCc1ccccc1
[2]
  T/C: 111 % of control and 112 % of control

## Nc1cc(=O)c2[nH]cnc2[nH]1
dose: 12.5 mg/kg/injection, schedule: Q01DX009 (ip), vehicle: saline
  T/C: 103 % of control
dose: 25.0 mg/kg/injection, schedule: Q01DX009 (ip), vehicle: saline
  T/C: 90 % of control
[3]
  T/C: 101 % of control
[12]
  T/C: 98 % of control and 101 % of control
[4]
  T/C: 106 % of control
[13]
  T/C: 103 % of control
[5]
  T/C: 107 % of control
[14]
  T/C: 88 % of control

## CN1Cc2c(cc(CN3CCCCC3)n2C)C(c2ccc(Br)cc2)C1 (stereo not drawn)
dose: 15.0 mg/kg/injection, schedule: Q01DX005 (ip), vehicle: saline with Tween-80
  T/C: 100 % of control
dose: 30.0 mg/kg/injection, schedule: Q01DX005 (ip), vehicle: saline with Tween-80
  T/C: 100 % of control
dose: 60.0 mg/kg/injection, schedule: Q01DX005 (ip), vehicle: saline with Tween-80
  T/C: 101 % of control

## CSC(=S)n1nc(-c2ccccc2)c(N=Nc2ccccc2[N+](=O)[O-])c1-c1ccccc1
dose: 100.0 mg/kg/injection, schedule: Q04DX002 (ip), vehicle: Klucel (hydroxypropylcellulose) (HPC)
  T/C: 105 % of control
dose: 200.0 mg/kg/injection, schedule: Q04DX002 (ip), vehicle: Klucel (hydroxypropylcellulose) (HPC)
  T/C: 97 % of control

## Cc1ccc(S(=O)(=O)N/N=C/C(=O)O)cc1
dose: 6.25 mg/kg/injection, schedule: Q01DX009 (ip), vehicle: Klucel (hydroxypropylcellulose) (HPC)
  T/C: 110 % of control and 119 % of control
dose: 6.25 mg/kg/injection, schedule: Q01DX009 (ip), vehicle: other
  T/C: 106 % of control
dose: 6.25 mg/kg/injection, schedule: Q01DX009 (ip), vehicle: water
  T/C: 108 % of control
dose: 12.5 mg/kg/injection, schedule: Q01DX009 (ip), vehicle: Klucel (hydroxypropylcellulose) (HPC)
  T/C: 114 % of control and 117 % of control and 122 % of control
[1]
  T/C: 121 % of control
[6]
  T/C: 152 % of control
[8]
  T/C: 104 % of control and 119 % of control and 117 % of control
[9]
  T/C: 107 % of control

## CN1C2C=CC1c1c(C3=NC(C)(C)CO3)cccc12 (stereo not drawn)
dose: 50.0 mg/kg/injection, schedule: Q01DX005 (ip), vehicle: saline
  T/C: 98 % of control
dose: 100.0 mg/kg/injection, schedule: Q01DX005 (ip), vehicle: saline
  T/C: 103 % of control

## O=S(=O)(OCC(O)C1OCC(O)C1O)c1ccccc1 (stereo not drawn)
[12]
  T/C: 98 % of control
[13]
  T/C: 100 % of control
[14]
  T/C: 105 % of control

## C/C=C/c1ccc(OC(C)C(=O)c2ccc3c(c2)OCO3)c(OC)c1 (stereo not drawn)
dose: 10.0 mg/kg/injection, schedule: Q01DX005 (ip), vehicle: Klucel (hydroxypropylcellulose) (HPC)
  T/C: 108 % of control
dose: 20.0 mg/kg/injection, schedule: Q01DX005 (ip), vehicle: Klucel (hydroxypropylcellulose) (HPC)
  T/C: 101 % of control
dose: 40.0 mg/kg/injection, schedule: Q01DX005 (ip), vehicle: Klucel (hydroxypropylcellulose) (HPC)
  T/C: 101 % of control

## Cc1ccc(S(=O)(=O)OC2=C3OC(=O)C4(C3C=CC=C2)C2C=CC=CC24)cc1 (stereo not drawn)
dose: 100.0 mg/kg/injection, schedule: Q01DX001 (ip), vehicle: saline with Tween-80
  T/C: 96 % of control
dose: 200.0 mg/kg/injection, schedule: Q01DX001 (ip), vehicle: saline with Tween-80
  T/C: 93 % of control
dose: 400.0 mg/kg/injection, schedule: Q01DX001 (ip), vehicle: saline with Tween-80
  T/C: 90 % of control

## NS(=O)(=O)c1ccc(N=Nc2c(O)n(-c3ccccc3)n(-c3ccccc3)c2=O)cc1
dose: 100.0 mg/kg/injection, schedule: Q04DX003 (ip), vehicle: Klucel (hydroxypropylcellulose) (HPC)
  T/C: 107 % of control
dose: 200.0 mg/kg/injection, schedule: Q04DX003 (ip), vehicle: Klucel (hydroxypropylcellulose) (HPC)
  T/C: 102 % of control
dose: 400.0 mg/kg/injection, schedule: Q04DX003 (ip), vehicle: Klucel (hydroxypropylcellulose) (HPC)
  T/C: 102 % of control

## O=S(=O)(CC(O)C(Cl)(Cl)Cl)N1CCCCC1 (stereo not drawn)
[6]
  T/C: 101 % of control
[8]
  T/C: 95 % of control
[10]
  T/C: 100 % of control
